Entries after “also recorded” stand apart in the source; their conditions may differ.
Tests used:
MaFRSA (N166A, V168A) [1] = test: RNAse A/LC-HRMS assay of Ma-tRNA^Pyl acylation by MaFRSA; assay type: biochemical, Methanomethylophilus alvus; conditions: RNAse A/LC-HRMS and intact tRNA analysis
MaFRS1 (N166A, V168L) [2] = test: Intact tRNA mass spectrometry: acylation of Ma-tRNA^Pyl by MaFRS1; assay type: biochemical, Methanomethylophilus alvus; conditions: MaFRS1 2.5 μM, Ma-tRNA^Pyl 25 μM, 37° C., 2 h; average of 3 technical replicates
MaFRS2 (N166A, V168K) [3] = test: Intact tRNA mass spectrometry: acylation of Ma-tRNA^Pyl by MaFRS2; assay type: biochemical, Methanomethylophilus alvus; conditions: MaFRS2 2.5 μM, Ma-tRNA^Pyl 25 μM, 37° C., 2 h; average of 3 technical replicates
MaFRSA (N166A, V168A) [4] = test: Intact tRNA mass spectrometry: acylation of Ma-tRNA^Pyl by MaFRSA; assay type: biochemical, Methanomethylophilus alvus; conditions: for Yield of diacylated Ma-tRNA^Pyl / Yield of monoacylated Ma-tRNA^Pyl: MaFRSA 2.5 μM, Ma-tRNA^Pyl 25 μM, 37° C., 2 h, average of 3 technical replicates
MaFRS1 (N166A, V168L) [5] = test: RNAse A/LC-HRMS assay of Ma-tRNA^Pyl acylation by MaFRS1; assay type: biochemical, Methanomethylophilus alvus; conditions: some statements also rest on intact tRNA analysis
MaFRS2 (N166A, V168K) [6] = test: RNAse A/LC-HRMS assay of Ma-tRNA^Pyl acylation by MaFRS2; assay type: biochemical, Methanomethylophilus alvus; conditions: some statements also rest on intact tRNA analysis
MaFRSA = test: Malachite green assay to monitor adenylation by MaFRSA; assay type: biochemical, Methanomethylophilus alvus
Description: Malachite green assay to monitor adenylation. Enzymatic adenylation reactions were monitored using malachite green using a previous protocol with modifications^52. Each adenylation reaction (60 μL) contained the following components: 200 mM HEPES-K (pH 7.5), 4 mM DTT, 10 mM MgCl2, 0.2 mM ATP, 0-10 mM substrate, 4 U/mL E. coli inorganic pyrophosphatase (NEB), and 2.5 μM enzyme (MaFRS1 or MaFRSA). Adenylation reactions were incubated at 37° C. in a dry-air incubator. Aliquots (10 μL) were withdrawn after 0, 5, 10, 20, and 30 min and quenched upon addition to an equal volume of 20 mM EDTA (pH 8.0) on ice. Once all aliquots were withdrawn, 80 μL of Malachite Green Solution (Echelon Biosciences) was added to each aliquot and the mixture incubated at RT for 30 min. After shaking for 30 sec to remove bubbles, the absorbance at 620 nm was measured on a Synergy HTX plate reader (BioTek). The absorbance was then converted to phosphate concentration using a phosphate standard curve (0-100 μM) and plotted over time to determine turnover numbers.

MaPylRS = test: RNAse A/LC-HRMS assay of Ma-tRNA^Pyl acylation by MaPylRS; assay type: biochemical, Methanomethylophilus alvus; conditions: some statements also rest on intact tRNA analysis
[7] = system: DH10B cells co-expressing MaFRSA; test: In vivo incorporation at position 200 of sfGFP, MaFRSA (intact mass, GluC LC-MS/MS); assay type: cell-based, E. coli
[8] = samples vi-vii, DH10B, defined media lacking glutamate, 1 mM substrate

Row | Structure (SMILES) | Substrate activity for MaFRSA (in words) (MaFRSA (N166A, V168A) [1]) | Yield of diacylated Ma-tRNA^Pyl (MaFRS1 (N166A, V168L) [2]) [%] | Yield of monoacylated Ma-tRNA^Pyl (MaFRS1 (N166A, V168L) [2]) [%] | Yield of diacylated Ma-tRNA^Pyl (MaFRS2 (N166A, V168K) [3]) [%] | Yield of monoacylated Ma-tRNA^Pyl (MaFRS2 (N166A, V168K) [3]) [%] | Yield of diacylated Ma-tRNA^Pyl (MaFRSA (N166A, V168A) [4]) [%] | Yield of monoacylated Ma-tRNA^Pyl (MaFRSA (N166A, V168A) [4]) [%] | Substrate activity for MaFRS1 (in words) (MaFRS1 (N166A, V168L) [5]) | Substrate activity for MaFRS2 (in words) (MaFRS2 (N166A, V168K) [6]) | other results
1 | N[C@@H](Cc1ccccc1)C(=O)O [Substrate 7, L-phenylalanine, reference compound] | low activity | – | – | – | – | – | – | – | – | –
2 | O=C(O)C(Cc1cccc(C(F)(F)F)c1)C(=O)O [Substrate 18] | highest activity | 9.24 | 59.3 | 0 | 26.1 | 0 | 31.4 | accept; also recorded: excellent substrates | accept; also recorded: excellent substrates | Acylation product in competition of L-Phe 7 and 18 (MaFRSA (N166A, V168A) [4]; MaFRSA incubated with equal concentration (10 mM) of L-Phe 7 and meta-CF3-2-BMA 18): Only the acylation product of 18 and Ma-tRNA^Pyl is observed; also recorded: only the malonyl product (18-tRNA^Pyl) is observed; Rate of adenylation as % of the rate observed for meta-CF3-L-Phe (MaFRSA): 36%
3 | CC(C)(C)OC(=O)NCCCCC(C(=O)O)C(=O)O [Substrate 16] | – | – | – | – | – | – | – | – | – | Substrate activity for MaPylRS (in words) (MaPylRS): accepts; also recorded: measurable substrate
4 | Cc1cccc(CC(C(=O)O)C(=O)O)c1 [Substrate 17] | high activity | 3.64 | 49.8 | 0 | 52.0 | 1.54 | 9.48 | accept; also recorded: excellent substrates | accept; also recorded: excellent substrates | –
5 | N[C@H](Cc1ccccc1)C(=O)O [Substrate 11, D-phenylalanine] | – | – | – | – | – | – | – | no reactivity was detected | no reactivity was detected | –
6 | N[C@@H](Cc1cccc(C(F)(F)F)c1)C(=O)O [Substrate 20] | – | – | – | – | – | – | – | – | – | Intact mass of expressed sfGFP variant (in words) ([7]; E. coli DH10B, 1 mM monomer, sfGFP-200TAG): mass corresponded to the presence of a single trifluoromethyl phenylalanine side chain; sfGFP containing variant 1 at position 200 [7, 8]: 0.00%; sfGFP containing variant 2 at position 200 [7, 8]: 0.00%; sfGFP containing variant 21 at position 200 [7, 8]: 0.63%; sfGFP containing variant A at position 200 [7, 8]: 0.14%; sfGFP containing variant F at position 200 [7, 8]: 0.15%; sfGFP containing variant K at position 200 [7, 8]: 0.14%; sfGFP containing variant Q at position 200 [7, 8]: 0.62%; sfGFP containing variant W at position 200 [7, 8]: 1.02%; sfGFP containing variant Y at position 200 [7, 8]: 0.15%
7 | O=C(O)C(Cc1cccc(Br)c1)C(=O)O [Substrate 19] | high activity | 10.8 | 37.4 | 0 | 32.7 | 0 | 22.3 | accept; also recorded: excellent substrates | accept; also recorded: excellent substrates | –
8 | CC(C)(C)OC(=O)NCCCC[C@@H](N)C(=O)O [Substrate 5, N^ε-(tert-butoxycarbonyl)-D-lysine] | – | – | – | – | – | – | – | – | – | Substrate activity for MaPylRS (in words) (MaPylRS): No reactivity was detected
9 | N[C@@H](Cc1cccc(C(F)(F)F)c1)C(=O)O [Sample 20] | – | – | – | – | – | – | – | – | – | sfGFP containing variant 20 at position 200 [7, 8]: 97.14%
